From patent US10647713B2 (Nimbus Lakshmi, Inc., priority 2016, dated 2020)

biological target: human TYK2 (JH2domain-pseudokinase) (Homo sapiens (Human), UniProt P29597); test: TYK2 JH2 Domain Binding Assay (KINOMEscan, DiscoveRx); settings: 11-point dilution, duplicate
How it was run: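 Kd from duplicate 11-point 3-fold dilutions starting at 30,000 nM, fitted by Hill equation with slope fixed at −1. Compounds (final 0.9% DMSO) displace DNA-tagged HEK293-expressed TYK2 JH2 fusion (<0.1 nM) from ligand-coated beads over 1 h at room temperature; eluted kinase read by qPCR.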

human TYK2 (JH2domain-pseudokinase), sequence (P29597 556-888): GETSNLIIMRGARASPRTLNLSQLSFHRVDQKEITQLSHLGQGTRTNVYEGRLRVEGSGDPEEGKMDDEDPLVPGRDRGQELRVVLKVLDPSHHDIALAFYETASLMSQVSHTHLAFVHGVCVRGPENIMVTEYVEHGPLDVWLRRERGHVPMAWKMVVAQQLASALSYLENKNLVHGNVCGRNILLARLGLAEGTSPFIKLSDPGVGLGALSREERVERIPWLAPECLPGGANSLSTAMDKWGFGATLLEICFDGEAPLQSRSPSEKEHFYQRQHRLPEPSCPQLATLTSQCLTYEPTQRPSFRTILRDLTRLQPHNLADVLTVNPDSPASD

SMILES | Kd
COc1c(Nc2cc(NC(=O)[C@@H]3C[C@@H]3F)nc3[nH]c(C)nc23)cccc1-c1ncn(C)n1 [I-266, (1S,2S)-2-fluoro-N-(7-((2-methoxy-3-(1-methyl-1H-1,2,4-triazol-3-yl)phenyl)amino)-2-methyl-3H-imidazo[4,5-b]pyridin-5-yl)cyclopropane-1-carboxamide] | 500 to 1000 pM
COc1c(Nc2cc(NC(=O)[C@H]3C[C@H]3F)nc3[nH]c(C)nc23)cccc1-c1ncn(C)n1 [I-267, (1R,2R)-2-fluoro-N-(7-((2-methoxy-3-(1-methyl-1H-1,2,4-triazol-3-yl)phenyl)amino)-2-methyl-3H-imidazo[4,5-b]pyridin-5-yl)cyclopropane-1-carboxamide] | 1000 to 10000 pM
CN(c1cc(-c2cncn2C)ccc1Nc1cc(NC(=O)[C@@H]2CC2(F)F)nc2[nH]c(C(F)F)nc12)S(C)(=O)=O [I-270, (S)—N-(2-(difluoromethyl)-7-((4-(1-methyl-1H-imidazol-5-yl)-2-(N-methylmethylsulfonamido)phenyl)amino)-3H-imidazo[4,5-b]pyridin-5-yl)-2,2-difluorocyclopropane-1-carboxamide] | 100 to 500 pM
CS(=O)(=O)c1cc(C2CC2)ccc1Nc1cc(Nc2cccc(C(F)(F)F)n2)nc2[nH]c(C(F)F)nc12 [I-272] | 1000 to 10000 pM
Cc1cc(-c2ccc(Nc3cc(Nc4cccc(C#N)n4)nc4[nH]c(C(F)F)nc34)c(S(C)(=O)=O)c2)nn1C [I-277] | 100 to 500 pM
CS(=O)(=O)c1cc([C@H]2CCCCO2)ccc1Nc1cc(NC(=O)[C@H]2CC2(F)F)nc2[nH]c(C(F)F)nc12 [I-280, (R)—N-(2-(difluoromethyl)-7-((2-(methylsulfonyl)-4-((R)-tetrahydro-2H-pyran-2-yl)phenyl)amino)-3H-imidazo[4,5-b]pyridin-5-yl)-2,2-difluorocyclopropane-1-carboxamide] | 500 to 1000 pM
CS(=O)(=O)c1cc([C@H]2CCCCO2)ccc1Nc1cc(NC(=O)[C@@H]2CC2(F)F)nc2[nH]c(C(F)F)nc12 [I-281, (S)—N-(2-(difluoromethyl)-7-((2-(methylsulfonyl)-4-((R)-tetrahydro-2H-pyran-2-yl)phenyl)amino)-3H-imidazo[4,5-b]pyridin-5-yl)-2,2-difluorocyclopropane-1-carboxamide] | 1000 to 10000 pM
CC1(C)CN=C(c2ccc(Nc3cc(NC(=O)C4CC4)nc4[nH]c(C(F)F)nc34)c(S(C)(=O)=O)c2)O1 [I-283, N-(2-(difluoromethyl)-7-((4-(5,5-dimethyl-4,5-dihydrooxazol-2-yl)-2-(methylsulfonyl)phenyl)amino)-3H-imidazo[4,5-b]pyridin-5-yl)cyclopropanecarboxamide] | 1000 to 10000 pM
Cc1nc2c(Nc3ccc(C4=NCC(C)(C)O4)cc3S(C)(=O)=O)cc(NC(=O)C3CC3)nc2[nH]1 [I-284, N-(7-((4-(5,5-dimethyl-4,5-dihydrooxazol-2-yl)-2-(methylsulfonyl)phenyl)amino)-2-methyl-3H-imidazo[4,5-b]pyridin-5-yl)cyclopropanecarboxamide] | 500 to 1000 pM
CP(C)(=O)c1cc(C2CC2)ccc1Nc1cc(NC(=O)C2CC2)nc2[nH]c(C(F)F)nc12 [I-285, N-(7-((4-cyclopropyl-2-(dimethylphosphoryl)phenyl)amino)-2-(difluoromethyl)-3H-imidazo[4,5-b]pyridin-5-yl)cyclopropanecarboxamide] | 100 to 500 pM
Cc1nc2c(Nc3ccc(C4CC4)cc3P(C)(C)=O)cc(NC(=O)C3CC3)nc2[nH]1 [I-286, N-(7-((4-cyclopropyl-2-(dimethylphosphoryl)phenyl)amino)-2-methyl-3H-imidazo[4,5-b]pyridin-5-yl)cyclopropanecarboxamide] | 100 to 500 pM
Cc1csc(-c2ccc(Nc3cc(NC(=O)C4CC4)nc4[nH]c(C(F)F)nc34)c(S(C)(=O)=O)c2)n1 [I-288, N-(2-(difluoromethyl)-7-((2-(methylsulfonyl)-4-(4-methylthiazol-2-yl)phenyl)amino)-3H-imidazo[4,5-b]pyridin-5-yl)cyclopropanecarboxamide] | 100 to 500 pM
Cc1csc(-c2ccc(Nc3cc(NC(=O)C4CC4)nc4[nH]c(C)nc34)c(S(C)(=O)=O)c2)n1 [I-289, N-(2-methyl-7-((2-(methylsulfonyl)-4-(4-methylthiazol-2-yl)phenyl)amino)-3H-imidazo[4,5-b]pyridin-5-yl)cyclopropanecarboxamide] | 100 to 500 pM
Cc1cc(-c2ccc(Nc3cc(Nc4cccc(C(F)(F)F)n4)nc4[nH]c(C(F)F)nc34)c(S(C)(=O)=O)c2)nn1C [I-290, 2-(difluoromethyl)-N7-(4-(1,5-dimethyl-1H-pyrazol-3-yl)-2-(methylsulfonyl)phenyl)-N5-(6-(trifluoromethyl)pyridin-2-yl)-3H-imidazo[4,5-b]pyridine-5,7-diamine] | 500 to 1000 pM

Results, then the compound that gave them:

Kd | SMILES
< 100 pM | Cc1nc2c(Nc3ccc(-c4cnn(C)c4C)cc3S(C)(=O)=O)cc(NC(=O)C3CC3)nc2[nH]1 [I-265, N-(7-((4-(1,5-dimethyl-1H-pyrazol-4-yl)-2-(methylsulfonyl)phenyl)amino)-2-methyl-3H-imidazo[4,5-b]pyridin-5-yl)cyclopropanecarboxamide]
100 to 500 pM | Cc1nc2c(Nc3ccc(-c4cnn(C)c4)cc3N(C)S(C)(=O)=O)cc(NC(=O)[C@@H]3C[C@@H]3F)nc2[nH]1 [I-268, (1S,2S)-2-fluoro-N-(2-methyl-7-((4-(1-methyl-1H-pyrazol-4-yl)-2-(N-methylmethylsulfonamido)phenyl)amino)-3H-imidazo[4,5-b]pyridin-5-yl)cyclopropane-1-carboxamide]
100 to 500 pM | Cc1nc2c(Nc3ccc(-c4cnn(C)c4)cc3N(C)S(C)(=O)=O)cc(NC(=O)[C@H]3C[C@H]3F)nc2[nH]1 [I-269, (1R,2R)-2-fluoro-N-(2-methyl-7-((4-(1-methyl-1H-pyrazol-4-yl)-2-(N-methylmethylsulfonamido)phenyl)amino)-3H-imidazo[4,5-b]pyridin-5-yl)cyclopropane-1-carboxamide]
1000 to 10000 pM | CN(c1cc(-c2cncn2C)ccc1Nc1cc(NC(=O)[C@H]2CC2(F)F)nc2[nH]c(C(F)F)nc12)S(C)(=O)=O [I-271, (R)—N-(2-(difluoromethyl)-7-((4-(1-methyl-1H-imidazol-5-yl)-2-(N-methylmethylsulfonamido)phenyl)amino)-3H-imidazo[4,5-b]pyridin-5-yl)-2,2-difluorocyclopropane-1-carboxamide]
500 to 1000 pM | Cc1nc2c(Nc3ccc(C4CC4)cc3S(C)(=O)=O)cc(Nc3cccc(C(F)(F)F)n3)nc2[nH]1 [I-273]
100 to 500 pM | Cc1nc2c(Nc3ccc(-c4cncn4C)cc3N(C)S(C)(=O)=O)cc(NC(=O)[C@@H]3CC3(F)F)nc2[nH]1 [I-274, (S)-2,2-difluoro-N-(2-methyl-7-((4-(1-methyl-1H-imidazol-5-yl)-2-(N-methylmethylsulfonamido)phenyl)amino)-3H-imidazo[4,5-b]pyridin-5-yl)cyclopropane-1-carboxamide]
1000 to 10000 pM | Cc1nc2c(Nc3ccc(-c4cncn4C)cc3N(C)S(C)(=O)=O)cc(NC(=O)[C@H]3CC3(F)F)nc2[nH]1 [I-275, (R)-2,2-difluoro-N-(2-methyl-7-((4-(1-methyl-1H-imidazol-5-yl)-2-(N-methylmethylsulfonamido)phenyl)amino)-3H-imidazo[4,5-b]pyridin-5-yl)cyclopropane-1-carboxamide]
100 to 500 pM | Cc1nc2c(Nc3ccc([C@@H]4CCCCO4)cc3S(C)(=O)=O)cc(NC(=O)[C@H]3CC3(F)F)nc2[nH]1 [I-278, (R)-2,2-difluoro-N-(2-methyl-7-((2-(methylsulfonyl)-4-((S)-tetrahydro-2H-pyran-2-yl)phenyl)amino)-3H-imidazo[4,5-b]pyridin-5-yl)cyclopropane-1-carboxamide]
1000 to 10000 pM | Cc1nc2c(Nc3ccc([C@@H]4CCCCO4)cc3S(C)(=O)=O)cc(NC(=O)[C@@H]3CC3(F)F)nc2[nH]1 [I-279, (S)-2,2-difluoro-N-(2-methyl-7-((2-(methylsulfonyl)-4-((S)-tetrahydro-2H-pyran-2-yl)phenyl)amino)-3H-imidazo[4,5-b]pyridin-5-yl)cyclopropane-1-carboxamide]
1000 to 10000 pM | Cc1nc2c(Nc3ccc(C4=NC(C)(C)CO4)cc3S(C)(=O)=O)cc(NC(=O)[C@@H]3C[C@@H]3F)nc2[nH]1 [I-282, (1S,2S)—N-(7-((4-(4,4-dimethyl-4,5-dihydrooxazol-2-yl)-2-(methylsulfonyl)phenyl)amino)-2-methyl-3H-imidazo[4,5-b]pyridin-5-yl)-2-fluorocyclopropane-1-carboxamide]
100 to 500 pM | CS(=O)(=O)c1cc(-c2ccn(C3CC3)n2)ccc1Nc1cc(NC(=O)C2CC2)nc2[nH]c(C(F)F)nc12 [I-287, N-(7-((4-(1-cyclopropyl-1H-pyrazol-3-yl)-2-(methylsulfonyl)phenyl)amino)-2-(difluoromethyl)-3H-imidazo[4,5-b]pyridin-5-yl)cyclopropanecarboxamide]
500 to 1000 pM | Cc1nc2c(Nc3ccc([C@@H]4CCOC4)cc3S(C)(=O)=O)cc(NC(=O)C3CC3)nc2[nH]1 [I-291, (S)—N-(2-methyl-7-((2-(methylsulfonyl)-4-(tetrahydrofuran-3-yl)phenyl)amino)-3H-imidazo[4,5-b]pyridin-5-yl)cyclopropanecarboxamide]
1000 to 10000 pM | Cc1nc2c(Nc3ccc([C@H]4CCOC4)cc3S(C)(=O)=O)cc(NC(=O)C3CC3)nc2[nH]1 [I-292, (R)—N-(2-methyl-7-((2-(methylsulfonyl)-4-(tetrahydrofuran-3-yl)phenyl)amino)-3H-imidazo[4,5-b]pyridin-5-yl)cyclopropanecarboxamide]
1000 to 10000 pM | CS(=O)(=O)c1cc(C2CCOCC2)ccc1Nc1cc(NC(=O)[C@@H]2CC2(F)F)nc2[nH]c(C(F)F)nc12 [I-293, (S)—N-(2-(difluoromethyl)-7-((2-(methylsulfonyl)-4-(tetrahydro-2H-pyran-4-yl)phenyl)amino)-3H-imidazo[4,5-b]pyridin-5-yl)-2,2-difluorocyclopropane-1-carboxamide]
